The values below come from patent US20260092057A1, “BCL-XL/BCL-2 DEGRADERS AND USES THEREOF” (Kymera Therapeutics, Inc., priority 2022, published 2026).

Assay [1] relates to MOLT-4 cells. The experiment in a line: CTG (CellTiter-Glo) cell viability assay, MOLT-4. Particulars: Homo sapiens, MOLT-4, 72 h, MOLT-4, 3 day; read-out: CTG Cell Viability Assay - MOLT-4 3 day: Average external-IC50. Type of assay: cell-based. As to the method: (§1) Compound-mediated viability effect on MOLT-4 and Caki-2 was quantitatively determined using the CellTiter-Glo® Luminescent Cell Viability Assay kit from Promega (Catalog number G7570) following manufacturer's recommended procedures. Briefly, MOLT-4 and Caki-2 cells were seeded into 384 well plates (Grenier Bio-One, Catalog number 781080) with a density of 10,000 cells per well. Compounds were then added to the assay plate with final top concentration of 10 µM and 1:3 dilution series with total of 9 doses. The final DMSO concentration is normalized to 0.2%. The assay plates were incubated at 37° C. for 3 days under 5% CO2. Then the assay plate was equilibrated at room temperature for 10 minutes. To determine cell viability, 30 uL CellTiter Glo reagent was added to each well and the assay plate was centrifuged at 1000 rpm for 30 second, incubated at room temperature for 10 min, and analyzed by detecting the luminescence using a multimode plate reader (EnVision 2105, PerkinElmer). The data was then analyzed by software Prism 7.0 from GraphPad and the dose response curves are fit using a three-parameter logistic equation to calculate IC50.
(§2) The letter codes for MOLT-4 IC50 include: A (<0.1 μM); B (0.1-1.0 μM); C (>1.0-3.0 μM); and D (>3.0 μM). The letter codes for Caki-2 IC50 include: A (<5 μM); B (5-10 μM); C (>10-30.0 μM); and D (>30.0 μM).
On the technique in general: In ATP-based viability assays light output follows the ATP content of the culture.

Assay [2] has as its system Caki-2 cells. Briefly: CTG (CellTiter-Glo) cell viability assay, Caki-2. Particulars: Homo sapiens, CAKI-2, 72 h, Caki-2, 3-day; read-out: CTG Chempartner/PHA- Caki-2 3-day: Average external-IC50. The format is cell-based. On the procedure:
as §1, §2

Each structure is given as a SMILES string. A value given as a limit tells only on which side of the number the result lay.

As for `Cc1ncsc1-c1ccc([C@H](C)NC(=O)[C@@H]2C[C@@H](O)CN2C(=O)[C@@H](NC(=O)CCCCCC(=O)N2CCN(CC[C@H](CSc3ccccc3)Nc3ccc(S(=O)(=O)NC(=O)c4ccc(NC5CC(C)C5)cc4)cc3S(=O)(=O)C(F)(F)F)CC2)C(C)(C)C)cc1` (some centres unmarked) [I-44], the figures for the IC50 in assay [1] and in assay [2] were more than 3 µM and more than 30 µM, respectively.

Turning to `Cc1ncsc1-c1ccc([C@H](C)NC(=O)[C@@H]2C[C@@H](O)CN2C(=O)[C@@H](NC(=O)CCCCCC(=O)NCCCNc2ccc(S(=O)(=O)NC(=O)c3ccc(N4CCN(Cc5ccccc5-c5ccc(Cl)cc5)CC4)cc3Oc3cnc4[nH]ccc4c3)cc2S(=O)(=O)C(F)(F)F)C(C)(C)C)cc1` [I-62], the IC50 is more than 3 µM in assay [1] and more than 30 µM in assay [2].

As for `Cc1ncsc1-c1ccc([C@H](C)NC(=O)[C@@H]2C[C@@H](O)CN2C(=O)[C@@H](NC(=O)CCCCCC(=O)N2CCN(CCCNc3ccc(S(=O)(=O)NC(=O)c4ccc(N5CCN(C)CC5)cc4Oc4cnc5[nH]ccc5c4)cc3S(=O)(=O)C(F)(F)F)CC2)C(C)(C)C)cc1` [I-57], the IC50 in assay [1] was more than 3 µM; in assay [2] it was more than 30 µM.

Turning to `Cc1ncsc1-c1ccc([C@H](C)NC(=O)[C@@H]2C[C@@H](O)CN2C(=O)[C@@H](NC(=O)CCCCCC(=O)N[C@H]2CCN(CCCNc3ccc(S(=O)(=O)NC(=O)c4ccc(N5CCN(CC6=C(c7ccc(Cl)cc7)CC(C)(C)CC6)CC5)cc4Oc4cnc5[nH]ccc5c4)cc3S(=O)(=O)C(F)(F)F)C2)C(C)(C)C)cc1` [I-96], the IC50 in assay [1] is 0.1 to 1 µM; in assay [2], more than 30 µM.

For the compound `Cc1ncsc1-c1ccc([C@H](C)NC(=O)[C@@H]2C[C@@H](O)CN2C(=O)[C@@H](NC(=O)CCCCCC(=O)N(C)CCCNc2ccc(S(=O)(=O)NC(=O)c3ccc(N4CCC([C@H](O)c5ccccc5-c5ccc(Cl)cc5)CC4)cc3Oc3cnc4[nH]ccc4c3)cc2S(=O)(=O)C(F)(F)F)C(C)(C)C)cc1` (single isomer, unassigned) [I-58], the IC50 in assay [1] is 1 to 3 µM; in assay [2], more than 30 µM.

Consider `COc1ccc(Oc2cc(N3CCN(CC4=C(c5ccc(Cl)cc5)CC(C)(C)CC4)CC3)ccc2C(=O)NS(=O)(=O)c2ccc(NCCCN3CCN(C(=O)CCCCCC(=O)N[C@H](C(=O)C4C[C@H](O)C[C@H]4C(=O)C[C@@H](C)c4ccc(-c5scnc5C)cc4)C(C)(C)C)CC3)c(S(=O)(=O)C(F)(F)F)c2)cc1` (some centres unmarked) [I-136], for which the IC50 was 0.1 to 1 µM in assay [1] and more than 30 µM in assay [2].

As to `C#Cc1ccc(CNC(=O)[C@@H]2C[C@@H](O)CN2C(=O)[C@@H](NC(=O)C2(F)CC2)C(C)(C)C)c(OCCCCCCC(=O)N2CCN(CCCNc3ccc(S(=O)(=O)NC(=O)c4ccc(N5CCN(CC6=C(c7ccc(Cl)cc7)CC(C)(C)CC6)CC5)cc4Oc4cnc5[nH]ccc5c4)cc3S(=O)(=O)C(F)(F)F)CC2)c1` [I-104], the IC50 in assay [1] is more than 3 µM; in assay [2], more than 30 µM.

For `Cc1ncsc1-c1ccc([C@H](C)NC(=O)[C@@H]2C[C@@H](O)CN2C(=O)[C@@H](NC(=O)CCCCCC(=O)N2CCN(CC[C@H](CSc3ccccc3)Nc3ccc(S(=O)(=O)NC(=O)c4ccc(N5CCC(N(C)C)CC5)cc4)cc3S(=O)(=O)C(F)(F)F)CC2)C(C)(C)C)cc1` [I-48], the IC50 in assay [1] was more than 3 µM; in assay [2], more than 30 µM.

Take `Cc1ncsc1-c1ccc([C@H](C)NC(=O)[C@@H]2C[C@@H](O)CN2C(=O)[C@@H](NC(=O)C2CCN(c3ccc(S(=O)(=O)NC(=O)c4ccc(-c5ccc(Cl)cc5)c(CN5CCN(c6ccc(C(=O)NS(=O)(=O)c7ccc(N[C@H](CCN(C)C)CSc8ccccc8)c([N+](=O)[O-])c7)cc6)CC5)c4)cc3)CC2)C(C)(C)C)cc1` [I-15]: the IC50 in assay [1] is more than 3 µM; in assay [2], more than 30 µM.

`C#Cc1ccc(C(CO)NC(=O)[C@@H]2C[C@@H](O)CN2C(=O)[C@@H](NC(=O)CCCCCCC(=O)N2CCN(C[C@]3(C)CCC(c4ccc(Cl)cc4)=C(CN4CCN(c5ccc(C(=O)NS(=O)(=O)c6ccc(NCCCN7CCOCC7)c(S(=O)(=O)C(F)(F)F)c6)c(Oc6cnc7[nH]ccc7c6)c5)CC4)C3)CC2)C(C)(C)C)cc1` (some centres unmarked) [I-139]: the IC50 was less than 0.1 µM in assay [1] and more than 30 µM in assay [2].

Take `Cc1ncsc1-c1ccc([C@H](C)NC(=O)[C@@H]2C[C@@H](O)CN2C(=O)[C@@H](NC(=O)C2CCC3(CC2)CCN(CCCNc2ccc(S(=O)(=O)NC(=O)c4ccc(N5CCN(CC6=C(c7ccc(Cl)cc7)CC(C)(C)CC6)CC5)cc4Oc4cnc5[nH]ccc5c4)cc2S(=O)(=O)C(F)(F)F)CC3)C(C)(C)C)cc1` [I-116]: the IC50 in assay [1] was more than 3 µM; in assay [2], more than 30 µM.

On to `Cc1ncsc1-c1ccc([C@H](C)NC(=O)[C@@H]2C[C@@H](O)CN2C(=O)[C@@H](NC(=O)C2CCN(c3ccc(N(C)CCCNc4ccc(S(=O)(=O)NC(=O)c5ccc(N6CCN(CC7=C(c8ccc(Cl)cc8)CC(C)(C)CC7)CC6)cc5Oc5cnc6[nH]ccc6c5)cc4S(=O)(=O)C(F)(F)F)cc3)CC2)C(C)(C)C)cc1` [I-89], for which the IC50 in assay [1] was more than 3 µM; in assay [2], more than 30 µM.

Turning to `Cc1ncsc1-c1ccc([C@H](C)NC(=O)[C@@H]2C[C@@H](O)CN2C(=O)[C@@H](NC(=O)CCCCC(=O)N2C[C@H]3C[C@@H]2CN3Cc2ccc(-c3ccc(Cl)cc3)c(CN3CCN(c4ccc(C(=O)NS(=O)(=O)c5ccc(N[C@H](CCN(C)C)CSc6ccccc6)c([N+](=O)[O-])c5)cc4)CC3)c2)C(C)(C)C)cc1` [I-16], the values for the IC50 in assay [1] and in assay [2] were more than 3 µM and more than 30 µM, respectively.

For `Cc1ncsc1-c1ccc([C@H](C)NC(=O)[C@@H]2C[C@@H](N)CN2C(=O)[C@@H](NC(=O)C2CCN(CCCNc3ccc(S(=O)(=O)NC(=O)c4ccc(N5CCC([C@H](O)c6ccccc6-c6ccc(Cl)cc6)CC5)cc4Oc4cnc5[nH]ccc5c4)cc3S(=O)(=O)C(F)(F)F)CC2)C(C)(C)C)cc1` [I-92], the IC50 was more than 3 µM in assay [1] and more than 30 µM in assay [2].

As for `Cc1ncsc1-c1ccc([C@H](C)NC(=O)[C@@H]2C[C@@H](O)CN2C(=O)[C@@H](NC(=O)CCCCCC(=O)N(C)CC[C@H](CSc2ccccc2)Nc2ccc(S(=O)(=O)NC(=O)c3ccc(N4CCC([C@@H](O)c5ccccc5-c5ccc(Cl)cc5)CC4)cc3)cc2S(=O)(=O)C(F)(F)F)C(C)(C)C)cc1` [I-72], the figures for the IC50 in assay [1] and in assay [2] were 1 to 3 µM and 10 to 30 µM, respectively.

On to `Cc1ncsc1-c1ccc([C@H](C)NC(=O)[C@@H]2C[C@@H](O)CN2C(=O)[C@@H](NC(=O)CCCCCC(=O)NCCCNc2ccc(S(=O)(=O)NC(=O)c3ccc(N4CCC([C@@H](O)c5ccccc5-c5ccc(Cl)cc5)CC4)cc3Oc3cnc4[nH]ccc4c3)cc2S(=O)(=O)C(F)(F)F)C(C)(C)C)cc1` [I-55], for which the IC50 is more than 3 µM in assay [1] and more than 30 µM in assay [2].

On to `Cc1ncsc1-c1ccc([C@H](C)NC(=O)[C@@H]2C[C@@H](O)CN2C(=O)[C@@H](NC(=O)CCCCCC(=O)N(C)CCCNc2ccc(S(=O)(=O)NC(=O)c3ccc(N4CCC([C@@H](O)c5ccccc5-c5ccc(Cl)cc5)CC4)cc3Oc3cnc4[nH]ccc4c3)cc2S(=O)(=O)C(F)(F)F)C(C)(C)C)cc1` [I-68], for which the IC50 in assay [1] is more than 3 µM; in assay [2], more than 30 µM.

As to `Cc1ncsc1-c1ccc([C@H](C)NC(=O)[C@@H]2C[C@@H](O)CN2C(=O)[C@@H](NC(=O)CCCCCC(=O)N2CCN(c3ccc(-c4ccc(Cl)cc4)c([C@@H](O)C4CCN(c5ccc(C(=O)NS(=O)(=O)c6ccc(N[C@H](CCN(C)CCO)CSc7ccccc7)c(S(=O)(=O)C(F)(F)F)c6)cc5)CC4)c3)CC2)C(C)(C)C)cc1` (single isomer, unassigned) [I-114], the results for the IC50 in assay [1] and in assay [2] were more than 3 µM and more than 30 µM, respectively.

Turning to `Cc1ncsc1-c1ccc([C@H](C)NC(=O)[C@@H]2C[C@@H](O)CN2C(=O)[C@@H](NC(=O)CCCCCN(CCO)CCCNc2ccc(S(=O)(=O)NC(=O)c3ccc(N4CCN(CC5=C(c6ccc(Cl)cc6)CC(C)(C)CC5)CC4)cc3Oc3cnc4[nH]ccc4c3)cc2S(=O)(=O)C(F)(F)F)C(C)(C)C)cc1` [I-100], the IC50 in assay [1] is more than 3 µM; in assay [2], more than 30 µM.

For `Cc1ncsc1-c1ccc([C@H](C)NC(=O)[C@@H]2C[C@@H](O)CN2C(=O)[C@@H](NC(=O)CCCCCC(=O)NCC[C@H](CSc2ccccc2)Nc2ccc(S(=O)(=O)NC(=O)c3ccc(N4CCC([C@@H](O)c5ccccc5-c5ccc(Cl)cc5)CC4)cc3)cc2S(=O)(=O)C(F)(F)F)C(C)(C)C)cc1` [I-82], the figures for the IC50 in assay [1] and in assay [2] were 1 to 3 µM and 10 to 30 µM, respectively.

For the compound `Cc1ncsc1-c1ccc([C@H](C)NC(=O)[C@@H]2C[C@@H](O)CN2C(=O)[C@@H](NC(=O)C2CCN(C3CCN(CCCNc4ccc(S(=O)(=O)NC(=O)c5ccc(N6CCN(CC7=C(c8ccc(Cl)cc8)CC(C)(C)CC7)CC6)cc5Oc5cnc6[nH]ccc6c5)cc4S(=O)(=O)C(F)(F)F)CC3)CC2)C(C)(C)C)cc1` [I-90], the results for the IC50 in assay [1] and in assay [2] were more than 3 µM and more than 30 µM, respectively.

`Cc1ncsc1-c1ccc([C@H](C)NC(=O)[C@@H]2C[C@@H](O)CN2C(=O)[C@@H](NC(=O)CCCCCCN2CCN(CCCNc3ccc(S(=O)(=O)NC(=O)c4ccc(N5CCN(CC6=C(c7ccc(Cl)cc7)CC(C)(C)CC6)CC5)cc4Oc4cnc5[nH]ccc5c4)cc3S(=O)(=O)C(F)(F)F)CC2)C(C)(C)C)cc1` [I-137]: the IC50 in assay [1] was less than 0.1 µM; in assay [2], more than 30 µM.
